Publication PMC6759624, “Unraveling Heparan Sulfate Proteoglycan Binding Motif for Cancer Cell Selectivity” (Frontiers in Oncology, 2019)

B1: NT4-biotin (pyELYENKPRRPYIL)4K2K-PEG12-K(biotin) (peptide)
peptide: ELYENKPRRPYIL
modifications: pyroglutamate at position 1 (pyE); the four arms are built on a branching core of lysines, K2K-PEG12-K(biotin)
notes: the 13-amino-acid arm of the tetrabranched peptide; the first letter is pyroglutamate (printed pyE); Tetrabranched: four copies of the arm joined by their C-termini to the amines of a three-lysine core (K2K), followed by PEG12 and Lys(biotin); The core is not written as a chain; also called NT4 peptide; NT4 conjugated with biotin; source: synthetic peptide (Fmoc chemistry, HPLC purified); not …
B2: Syndecan-4: full-length recombinant human HSPG from mouse myeloma cell line (NS0), R&D Systems (protein)
chain: ESIRETEVIDPQDLLEGRYFSGALPDDEDVVGPGQESDDFELSGSGDLDDLEDSMIGPEVVHPLVPLDNHIPERAGSGSQVPTEPKKLEENEVIPKRISPVEESEDVSNKVSMSSTVQGSNIFERTEVLAALIVGGIVGILFAVFLILLLMYRMKKKDEGSYDLGKKPIYKKAPTNEFYA
B3: Glypican-4: full-length recombinant human HSPG from Chinese Hamster Ovary cell line, R&D Systems (protein)
chain: ALLAAELKSKSCSEVRRLYVSKGFNKNDAPLHEINGDHLKICPQGSTCCSQEMEEKYSLQSKDDFKSVVSEQCNHLQAVFASRYKKFDEFFKELLENAEKSLNDMFVKTYGHLYMQNSELFKDLFVELKRYYVVGNVNLEEMLNDFWARLLERMFRLVNSQYHFTDEYLECVSKYTEQLKPFGDVPRKLKLQVTRAFVAARTFAQGLAVAGDVVSKVSVVNPTAQCTHALLKMIYCSHCRGLVTVKPCYNYCSNIMRGCLANQGDLDFEWNNFIDAMLMVAERLEGPFNIESVMDPIDVKISDAIMNMQDNSVQVSQKVFQGCGPPKPLPAGRISRSISESAFSARFRPHHPEERPTTAAGTSLDRLVTDVKEKLKQAKKFWSSLPSNVCNDERMAAGNGNEDDCWNGKGKSRYLFAVTGNGLANQGNNPEVQVDTSKPDILILRQIMALRVMTSKMKNAYNGNDVDFFDISDESSGEGSGSGCEYQQCPSEFDYNATDHAGKSANEKADS

Assays:
[1] = system: NT4 (NT4-biotin captured on streptavidin CM5 chip); assay: SPR, synthetic sulfated oligosaccharides injected over immobilized NT4; type: binding; details: for Kd (koff) / Ka (Kon) / Kd: immobilized NT4-biotin, HBS-EP+ pH 7.4, 1:1 Langmuir model, oligosaccharide as analyte; for Kd (koff): dissociation rate; for oligosaccharide binding to immobilized NT4 (in words): oligosaccharide 100 μg/ml (Figure 4E)
Excerpt: Eight-mer and nine-mer oligosaccharides S00 (GlcNAc-GlcA)4 α-paranitrophenyl, S04 (GlcNS-GlcA)4 α-paranitrophenyl, S06a (GlcA-GlcNS)2-(GlcA-GlcNS,6S)2-GlcA α-paranitrophenyl (9-mer), and S06b GlcNS-GlcA-GlcNS-IdoA,2S-GlcNS-IdoA,2S-GlcNS-GlcA α-paranitrophenyl were purchased from Iduron. In all oligosaccharides, the units were linked together by α (1–4) bonds only and carry a paranitrophenyl group. S12 (ΔHexA,2S α1-4 GlcNS,6S)3 (9-mer) was from Amsbio, and its first glycoside is unsaturated.
(§1) NT4-biotin was captured on a CM5 sensor chip where streptavidin had previously been immobilized by standard amine coupling. Briefly, the sensor chip surface was activated with a mixture of 0.1 M 1-ethyl-3(3-dimethylaminopropyl)-carbodiimide (EDC) and 0.4 M N-hydroxyl succinimide (NHS) for 7 min at a flow rate of 5 μl/min. Streptavidin was injected over the surface for 7 min, and finally, 1 M ethanolamine pH 8.5 was used to block any activated carboxyl groups. NT4-biotin, diluted in HBS-EP+ (Hepes 10 mM, NaCl 150 mM, EDTA 3.4 mM, 0.05% p20, pH 7.4) to 30 μg/ml, was injected for 2 min at a flow rate of 10 μl/min.
(§2) HSPG and oligosaccharides were diluted to different concentrations in HBS-EP+ and then injected over immobilized NT4 peptides. The sensor chip surface was regenerated with a short pulse of 10 mM NaOH/0.5 M NaCl 5 min after the end of the injections.
(§3) Kinetics were analyzed with the Biacore T100 evaluation 1.1.1 software using the 1:1 Langmuir model to fit the curves.

cancer cell lines = details: confocal microscopy, 37°C; "completely internalized only after 2 h"; ref [14], [16]; cited from earlier work
living cells = details: after 24 h; mass spectrometry; ref [14]; cited from earlier work
[2] = system: NT4 (NT4-biotin captured on streptavidin CM5 chip); assay: SPR, rHSPG injected over immobilized NT4 (Biacore T100); type: binding; details: for Ka (Kon): HBS-EP+ (Hepes 10 mM, NaCl 150 mM, EDTA 3.4 mM, 0.05% p20, pH 7.4), 1:1 Langmuir model, full-length recombinant human HSPG as analyte; for Kd (koff) / Kd: HBS-EP+ pH 7.4, 1:1 Langmuir model, rHSPG as analyte; for Kd (koff): dissociation rate
Description: Experiments were performed on a Biacore T100 instrument (GE Healthcare). All materials were purchased from GE Healthcare unless otherwise specified. Full-length recombinant human HSPG were purchased from R&D Systems. Syndecan-3, syndecan-4, and glypican-3 were obtained from the mouse myeloma cell line (NS0), and glypican-4 was obtained from the Chinese Hamster Ovary cell line. The activity of syndecan-4, glypican-3, and glypican-4 was measured by the supplier as the ability of the immobilized protein to bind FGF-basic. The activity of syndecan-3 was measured by the supplier as the ability of the immobilized protein to inhibit adhesion of Saos-2 human osteosarcoma cells to human fibronectin.
as §1, §2, §3

[3] = target: recombinant human syndecan-4 (human, UniProt P31431 19-198); assay: SPR; Biacore T100; NT4-biotin captured on streptavidin on a CM5 chip; HSPG diluted in HBS-EP+ (Hepes 10 mM, NaCl 150 mM, EDTA 3.4 mM, 0.05% p20, pH 7.4) injected over it; 1:1 Langmuir model; details: both partners purified
[4] = target: recombinant human glypican-3 (human, UniProt P51654 25-580); assay: as above; details: both partners purified
[5] = target: T1, recombinant human glypican-4 (human, UniProt O75487 19-529); assay: as above; details: both partners purified
T1 construct: also called GPC4; rHSPG; source: bought: R&D Systems; from the Chinese Hamster Ovary cell line
T1 sequence (looked up): B3 chain

| Molecule | Kd (koff) [1] | Ka (Kon) [1] | Kd [1] | oligosaccharide binding to immobilized NT4 (in words) [1] | Ka (Kon) [2] | Kd (koff) [2] | Kd [2] | also measured |
| --- | --- | --- | --- | --- | --- | --- | --- | --- |
| (GlcA-GlcNS)2-(GlcA-GlcNS,6S)2-GlcA α-paranitrophenyl [S06a] | 0.002575 s⁻¹ | 1060 M⁻¹ s⁻¹ | 2430 nM | bound NT4 better | – | – | – | – |
| (GlcNS-GlcA)4 α-paranitrophenyl [S04] | – | – | – | almost total loss of binding | – | – | – | – |
| (pyELYENKPRRPYIL)4K2K-PEG12-K(biotin) [NT4-biotin] | – | – | – | – | – | – | – | time to complete internalization (cancer cell lines): 2 h; stability on degradation by living cells (living cells): still stable after 24 h |
| (ΔHexA,2S α1-4 GlcNS,6S)3 [S12] | 0.0009126 s⁻¹ | 3530 M⁻¹ s⁻¹ | 258 nM | best-binding oligosaccharide | – | – | – | – |
| GlcNS-GlcA-GlcNS-IdoA,2S-GlcNS-IdoA,2S-GlcNS-GlcA α-paranitrophenyl [S06b] | 0.004039 s⁻¹ | 1490 M⁻¹ s⁻¹ | 2700 nM | – | – | – | – | – |
| Glypican-3: full-length recombinant human HSPG from mouse myeloma cell line (NS0), R&D Systems | – | – | – | – | 23920 M⁻¹ s⁻¹ | 0.001433 s⁻¹ | 59.9 nM | – |
| B1 | – | – | – | – | – | – | – | Kd [3]: 257 nM; koff [3]: 0.00232 s⁻¹; kon [3]: 9010 M⁻¹ s⁻¹; Kd [4]: 59.9 nM; koff [4]: 0.00143 s⁻¹; kon [4]: 23900 M⁻¹ s⁻¹; Kd [5]: 77.1 nM; koff [5]: 0.000672 s⁻¹; kon [5]: 8710 M⁻¹ s⁻¹ |
| B2 | – | – | – | – | 9010 M⁻¹ s⁻¹ | 0.002316 s⁻¹ | 257 nM | – |
| B3 | – | – | – | – | 8710 M⁻¹ s⁻¹ | 0.0006719 s⁻¹ | 77.1 nM | – |
